Assay results published in patent US20240166612A1, “ARYLTHIOETHER ACETAMIDE AND RELATED COMPOUNDS AND THEIR USE IN TREATING MEDICAL CONDITIONS” (X-Biotix Therapeutics, Inc., priority 2021, published 2024).
≈ marks a conversion by molar mass, not a printed value.

Tests used:
[1] = target: T1, recombinant LpxD enzyme (P. aeruginosa) (Pseudomonas aeruginosa, UniProt Q9HXY6); experiment: LpxD in vitro substrate acylation assay with RapidFire MS analysis (P. aeruginosa); format: biochemical; conditions: P. aeruginosa enzyme 10 nM, EcACP-C10, 120 min
T1 sequence (Q9HXY6 1-353): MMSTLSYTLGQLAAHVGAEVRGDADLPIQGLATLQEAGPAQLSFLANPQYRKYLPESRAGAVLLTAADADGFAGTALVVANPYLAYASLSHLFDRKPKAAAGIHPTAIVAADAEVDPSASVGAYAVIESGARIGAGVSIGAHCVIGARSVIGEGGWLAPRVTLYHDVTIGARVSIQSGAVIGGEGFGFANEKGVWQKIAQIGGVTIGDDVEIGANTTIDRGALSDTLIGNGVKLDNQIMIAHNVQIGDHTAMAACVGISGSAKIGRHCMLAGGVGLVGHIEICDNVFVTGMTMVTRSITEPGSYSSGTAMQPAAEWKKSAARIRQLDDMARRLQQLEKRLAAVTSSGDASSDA
Method: Exemplary compounds from the above Examples were tested for ability to inhibit LpxD activity using an in vitro substrate acylation assay with RapidFire™ MS analysis. Assay procedures and results are described below.
Reactions were carried out in a final volume of 30 μL with 25 mM HEPES (pH 7.3), 150 mM NaCl, 2 mM DTT, 0.01% BSA, 5 μM UDP-3-O[R-3-Hydroxymyristoyl]-glucosamine (produced at Charles River according to literature procedures, and partially purified at Evotec), 10 nM recombinant LpxD enzyme (P. aeruginosa or E. coli, produced at Evotec), 1 μM decanoyl E. coli acyl-carrier protein (EcACP-C10, produced at Evotec), and 1% DMSO containing test compound. After 120 min incubation at room temperature, reactions were stopped by addition of 30 μL of 10% TCA in water.
(§1) Samples were centrifuged (4350 rpm, 4° C., 5 min), and then subjected to RapidFire™ MS analysis on an Agilent RapidFire 300 coupled to an Agilent 6460 triple-quadrupole mass spectrometer. Analytes were retained on a C4 (type A) cartridge using the following solvents and flow rates: • Pump 1—H2O with 5 mM NH4OAc at 2.0 mL/min, • Pump 2—MeOH/H2O (90/10) at 1.5 mL/min, • Pump 3—MeOH/H2O (90/10) at 0.5 mL/min, and • Pump 4—ACN (organic)/H2O (aqueous). Substrate and product of the reaction were detected in negative mode ESI-MS/MS by MRM (multiple reaction monitoring) of transitions 790.3/385.0 (UDP-3-O[R-3-Hydroxymyristoyl]-glucosamine substrate) and 960.4/385.0 (UDP-3-O—[R-3-Hydroxymyristoyl]-N—[R-3-hydroxydecanoyl]-glucosamine product).
For IC50 determinations, peak areas of the substrate and product were compared to compute the proportion of product formed by the LpxD enzyme at each compound concentration. The fractional activity was converted to percentage inhibition and plotted against compound concentration in Evotec's proprietary platform Aplus and fit using a four-parameter logistic using non-linear regression to yield the IC50 value.

[2] = target: T2, recombinant LpxA enzyme (P. aeruginosa) (Pseudomonas aeruginosa, UniProt Q9X6P4); experiment: LpxA in vitro substrate acylation assay with RapidFire MS analysis (P. aeruginosa); format: biochemical; conditions: P. aeruginosa enzyme 0.5 nM, PaACP-C10, 30 min
T2 sequence (Q9X6P4 1-258): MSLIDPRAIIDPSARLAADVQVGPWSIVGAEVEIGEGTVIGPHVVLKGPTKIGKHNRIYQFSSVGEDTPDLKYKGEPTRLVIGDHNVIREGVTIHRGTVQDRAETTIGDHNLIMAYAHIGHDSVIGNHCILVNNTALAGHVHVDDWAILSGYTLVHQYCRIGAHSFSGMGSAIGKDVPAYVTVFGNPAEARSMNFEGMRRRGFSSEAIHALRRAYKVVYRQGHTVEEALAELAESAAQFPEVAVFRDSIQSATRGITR

[3] = test system: Wild-type P. aeruginosa PAO1; experiment: Broth microdilution MIC, wild-type P. aeruginosa PAO1; format: cell-based; conditions: Pseudomonas aeruginosa; wild-type P. aeruginosa PAO1, 37° C., 18 h; read-out: PAO1 WT MIC
[4] = target: recombinant LpxA enzyme (E. coli) (Escherichia coli, UniProt P0A722); experiment: LpxA in vitro substrate acylation assay with RapidFire MS analysis (E. coli); format: biochemical
Method: Exemplary compounds from the above Examples were tested for ability to inhibit LpxA activity using an in vitro substrate acylation assay with RapidFire™ MS analysis. Assay procedures and results are described below.
Reactions were carried out in a final volume of 30 μL with 25 mM HEPES (pH 7.3), 150 mM NaCl, 2 mM DTT, 0.01% BSA, 5 μM UDP-GlcNac, recombinant LpxA enzyme (0.5 nM P. aeruginosa or 1.0 nM E. coli, both produced at Evotec), 0.5 μM acyl-transfer reagent (decanoyl P. aeruginosa acyl-carrier protein [PaACP-C10] or myristoyl E. coli acyl-carrier protein [EcACP-C1-4], both produced at Evotec), and 1% DMSO containing test compound. After 30 min incubation at room temperature, reactions were stopped by addition of 30 μL of 10% TCA in water.
as §1, with “606.0/385.0 (UDP-GlcNAc” for “790.3/385.0 (UDP-3-O[R-3-Hydroxymyristoyl]-glucosamine”, “776.2/385.0 (UDP-3-O—(R-3-hydroxydecanoyl)-GlcNAc product, for P. aeruginosa LpxA assay) or 832.2/385.0 (UDP-3-O—(R-3-hydroxymyristoyl)-GlcNAc product, for E. coli LpxA assay).” for “960.4/385.0 (UDP-3-O—[R-3-Hydroxymyristoyl]-N—[R-3-hydroxydecanoyl]-glucosamine product).”
For IC50 determinations, peak areas of the substrate and product were compared to compute the proportion of product formed by the LpxA enzyme at each compound concentration.

[5] = test system: P. aeruginosa PAO397; experiment: Broth microdilution MIC, P. aeruginosa PAO397; format: cell-based; conditions: Pseudomonas aeruginosa, PAO397, 18 h, read-out: PAO397 KO MIC
[6] = test system: E. coli JW0452-3 (BW25113 JacrA::kan); experiment: Broth microdilution MIC, E. coli JW0452-3; format: cell-based; conditions: Escherichia coli, BW25113, 18 h, read-out: E. coli KO MIC
Method: Exemplary compounds from the above Examples were tested to determine their minimum inhibitory concentration (MIC) for exemplary strains of Escherichia and Pseudomonas bacteria using broth microdilution methods. Assay procedures and results are described below.
Broth microdilution assays were conducted according to Clinical and Laboratory Standards Institute guidelines (CLSI, M07-A^11: Clinical and Laboratory Standards Institute. Methods for Dilution Antimicrobial Susceptibility Tests for Bacteria that Grow Aerobically; Approved Standard-11th Edition. Wayne, PA: CLSI, 2018). Briefly, bacterial suspensions were adjusted to a density equivalent to a 0.5 McFarland standard and diluted in sterile, cation-adjusted Mueller-Hinton broth (Beckton Dickinson) to yield a final inoculum between 2×10^5 and 8×10^5 colony-forming units (CFU)/mL. An inoculum volume of 98 μL was added to wells containing 2 μL of 2-fold serial dilutions of drug (prepared in DMSO). All inoculated microdilution trays were incubated in ambient air at 37° C. for 18 h. […] Performance of the assay was monitored by the use of laboratory quality-control strains (S. aureus ATCC 29213 and P. aeruginosa ATCC 27853) and levofloxacin, a compound with a defined MIC spectrum, in accordance with CLSI guidelines (CLSI, M100Ed29: Clinical and Laboratory Standards Institute. Performance Standards for Antimicrobial Susceptibility Testing, 29th Edition. Wayne, PA: CLSI, 2018).
Multiple enterobacteriaceae strains were tested, including both wild-type strains and multi-drug resistance pump deficient mutants. Specific strains tested included the following: • Wild-type P. aeruginosa PAO1, • P. aeruginosa PAO1 ΔmexABoprM—Disabled multi-drug efflux system Δ(MexAB-OprM), • P. aeruginosa PAO397—PAO1Δ(mexAB-oprM) Δ(mexCD-oprJ) Δ(mexEF-oprN) Δ(mexJK) Δ(mexXY) ΔopmH, • P. aeruginosa LESB58—Clinical isolate; colistin-resistant, isolated in the United Kingdom in 1988 from a patient with cystic fibrosis • E. coli JW0452-3 (BW25113 JacrA::kan)—Disabled multi-drug efflux system (AcrAB-TolC). […]

[7] = test system: P. aeruginosa PAO1 ΔmexABoprM; experiment: Broth microdilution MIC, P. aeruginosa PAO1 ΔmexABoprM; format: cell-based; conditions: Pseudomonas aeruginosa, PAO1, 18 h, read-out: PAO1 KO MIC

Chain of recombinant LpxA enzyme (E. coli) (P0A722 whole entry): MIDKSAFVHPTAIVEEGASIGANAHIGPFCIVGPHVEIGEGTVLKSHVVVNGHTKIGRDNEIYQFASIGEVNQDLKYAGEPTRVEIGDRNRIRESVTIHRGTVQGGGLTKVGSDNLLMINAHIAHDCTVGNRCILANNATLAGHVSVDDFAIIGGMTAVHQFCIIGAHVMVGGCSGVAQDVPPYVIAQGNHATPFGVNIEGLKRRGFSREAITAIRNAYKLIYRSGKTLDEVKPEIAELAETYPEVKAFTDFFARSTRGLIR

Structure (SMILES) | IC50 [1] [µM] | IC50 [2] [µM] | MIC [3] [µg/mL] | IC50 [4] [µM] | MIC [5] [µg/mL] | MIC [6] [µg/mL] | MIC [7] [µg/mL]
N#Cc1ccc(CN(CC(=O)N2CCOCC2)C(=O)CSc2ccccc2Cl)cc1 [Compound No. 2] | > 20 | > 1 | > 64 | > 20 | 16 to 64 (≈ 36 to 144 µM) |  | 
CN1CC(NC(=O)CN(Cc2ccc(C#N)cc2)C(=O)CSc2ccccc2Cl)C1 [Compound No. 6] | > 20 | > 1 | > 64 |  | 1 to 16 (≈ 2.26 to 36.1 µM) |  | 
N#Cc1ccc(CN(Cc2nnc(N)o2)C(=O)CSc2cc(-c3c[nH]cn3)ccc2Cl)c(F)c1 [Compound No. 62, N-[(5-Amino-1,3,4-oxadiazol-2-yl)methyl]-2-[2-chloro-5-(1H-imidazol-4-yl)phenyl]sulfanyl-N-[(4-cyano-2-fluoro-phenyl)methyl]acetamide] |  | 0.1 to 1 | > 64 | 5 to 20 | 1 to 16 (≈ 2.01 to 32.1 µM) | 16 to 64 (≈ 32.1 to 129 µM) | 
N#Cc1ccc(CN(CC(=O)NC2CNC2)C(=O)CSc2ccccc2Cl)cc1 [compound 5] | > 20 | 0.1 to 1 | > 64 |  | 16 to 64 (≈ 37.3 to 149 µM) | 16 to 64 (≈ 37.3 to 149 µM) | 
CS(=O)(=O)Nc1ccc(CN(Cc2nnc(N)o2)C(=O)CSc2ccccc2Cl)cc1 [compound 46] |  | 0.02 to 0.1 | > 64 | > 20 | 1 to 16 (≈ 2.07 to 33.2 µM) | 16 to 64 (≈ 33.2 to 133 µM) | > 64
